Test results taken from US9029076B2, “Tissue preservation and fixation method” (George Mason Research Foundation, Inc., priority 2006, dated 2015).
“Also recorded” adds a separate entry of the source.

Assays:
[1] = system: mTOR (S2448); assay: RPA of fixed versus snap frozen samples; conditions: cellular equivalents printed on reverse phase protein microarrays, FIG. 7
Excerpt: We compared phosphoproteins from real time, room temperature shipping conditions in a methanol:water or ethanol:water fixative to samples that were snap frozen.

[2] = system: AKT Thr308; assay: RPA phosphoprotein level after 24 h storage of tumor needle samples in preservatives; conditions: 24 h in preservative at 4° C., relative normalized RPA intensity
Experimental: (§1) The RPA format, originated by the present inventors and collaborators (see, e.g., Paweletz et al. (2001) Oncogene 20, 1981-1989), immobilizes an individual test sample in a miniature dilution curve such that an array contains hundreds of different patient samples, treatments, or time points. In the RPA format, each array is incubated with one detection protein (e.g. anti-peptide antibody), and a single analyte endpoint is measured and directly compared across multiple samples. Briefly, the lysates are printed on glass backed nitrocellulose array slides (FAST Slides Whatman, Florham Park, N.J. or ONCYTE slides Grace BioLabs, Bend, Oreg.) using a robotic array printing device (GMS 417 arrayer (Affymetrix, Santa Clara, Calif. or Aushon 2470, Aushon Biosystems, Burlington, Mass. equipped with 125-500 μm pins). Each lysate is printed in a dilution curve representing neat, 1:2, 1:4, 1:8, 1:16 and negative control dilutions. The slides are stored with desiccant (Drierite, W. A. Hammond, Xenia, Ohio) at −20° C. prior to immunostaining.
(§2) Immunostaining is performed on an automated slide stainer per manufacturer's instructions (Autostainer CSA kit, Dako, Carpinteria, Calif.). Each slide is incubated with a single primary antibody at room temperature for 30 minutes. Polyclonal primary antibodies can be, e.g.: GSK3α/β Tyr279/216 (Invitrogen-Biosource, Carlsbad, Calif.), BCL-2, HIF-1α (BD, Franklin Lakes, N.J.), 4EBP1, FKHR ser256, eIF4E, eIF4E ser209, eIF4G, eIF4G ser1108, IGFR-β, IRS-1, IRS-2, IRS-1 ser612, SGK, Bak, Bax, BAD, BAD ser112, BAD ser136, BAD ser155, B-Raf, mTOR, mTOR ser2448, p70S6 Thr389, p70S6 kinase, p70S6 ser371, S6 kinase ser240/244, Akt, Akt ser473, Akt Thr308, 4EBP1 ser65, 4EBP1 ser70, and 4EBP1 Thr37/46 (Cell Signaling Technology, Danvers, Mass.). A negative control slide is incubated with antibody diluent. Secondary antibody can be goat anti-rabbit IgG H+L (1:5000) (Vector Labs, Burlingame, Calif.).
(§3) Each array is scanned, spot intensity analyzed, data normalized, and a standardized, single data value can be generated for each sample on the array (Image Quant v5.2, GE Healthcare, Piscataway, N.J.) or MicroVigene v2.8, Vigene Tech, Billerica, Mass.). Spot intensity is integrated over a fixed area. Local area background intensity is calculated for each spot with the unprinted adjacent slide background. […] The Ward method for two-way hierarchical clustering can be performed using JMP v5.0 (SAS Institute, Cary N.C.). Wilcoxon two-sample rank sum test can be used to compare values between two groups. P values less than 0.05 are considered significant. When one cannot assume a normal distribution of the variables, non-parametric methods are used. Kaplan-Meier (log-rank) survival estimates for univariate survival analysis can be used.
(§4) Briefly, tumor tissues from gastrinoma/liver, mesothelioma and parathyroid tumors were sampled by five needle passes and placed into the preservatives listed in Table 5. […] Immediate lysis and denaturation of the cellular proteins were accomplished by standard Pierce Tissue Protein Extraction Buffer (T-PER), with additional SDS, denaturing reagents, and detergents. The cell samples were stored 24 h in the listed preservatives at 4° C. and then the listed phosphoprotein endpoints were measured. […] Some values dropped to zero while others are markedly elevated compared to the freshly lysed cell baseline. […] They were unable to stabilize the phosphorylation state of key signal proteins over a storage period of 24 hours, which is a typical time delay for cell or tissue shipment. Numbers in the table are relative normalized intensity values using the RPA technology described herein.

[3] = system: AKT ser473; assay: as above; conditions: 24 h in preservative at 4° C., relative normalized RPA intensity
Experimental: as §1, §2, §3, §4

[4] = system: CC3 Asp175; assay: as above; conditions: 24 h in preservative at 4° C., relative normalized RPA intensity
Experimental: as §1, §2, §3, §4

[5] = system: CREB ser133; assay: as above; conditions: 24 h in preservative at 4° C., relative normalized RPA intensity
Experimental: as §1, §2, §3, §4

[6] = system: EGFR Y1148; assay: as above; conditions: 24 h in preservative at 4° C., relative normalized RPA intensity
Experimental: as §1, §2, §3, §4

[7] = system: ERK T202/Y204; assay: as above; conditions: 24 h in preservative at 4° C., relative normalized RPA intensity
Experimental: as §1, §2, §3, §4

[8] = system: GSK3ab ser21/9; assay: as above; conditions: 24 h in preservative at 4° C., relative normalized RPA intensity
Experimental: as §1, §2, §3, §4

[9] = system: IKappa-Ba ser32; assay: as above; conditions: 24 h in preservative at 4° C., relative normalized RPA intensity
Experimental: as §1, §2, §3, §4

[10] = system: IRS-1 ser612; assay: as above; conditions: 24 h in preservative at 4° C., relative normalized RPA intensity
Experimental: as §1, §2, §3, §4

[11] = system: p38 T180/182; assay: as above; conditions: 24 h in preservative at 4° C., relative normalized RPA intensity
Experimental: as §1, §2, §3, §4

[12] = system: phosphoproteins; assay: Overall phosphoprotein preservation of FNA / tumor needle samples stored 24 h at 4° C.; conditions: compared to directly lysed cell baseline
Experimental: Fine Needle Aspirate (FNA) samples were stored for 24 hours at 4° C. in each of the chemicals/chemical solutions. The cellular samples were further processed for reverse phase protein microarray analysis. […] Each set of 4 horizontal spots by 2 vertical spots represent an original and its replicate sample, printed on the array in two-fold dilutions, for each FNA sample. The dilution series represents undiluted, 1:2, 1:4 and 1:8 dilutions of each sample.
A variety of types of tumor tissues were incubated in a series of conventional preservatives to determine if the preservatives were able to stabilize selected phosphoproteins.

[13] = system: phosphoproteins; conditions: for phosphoprotein endpoints, room temperature shipping in fixative versus snap frozen: real time, room temperature shipping conditions, FIGS. 6A, 6B and 7
[14] = system: EGFR Y1173; assay: Phosphorylation over time with phosphatase inhibitor in cell culture model; format: cell-based; conditions: living cells exposed to phosphatase inhibitor, FIG. 10A
Experimental: (§5) The phosphorylation rises rapidly to a high level in less than 40 minutes, which is followed by cell death.
(§6) These continuing metabolic processes present problems for the preservation of phosphoproteins in a sample. For example, the inventors have discovered that the addition of a phosphatase inhibitor alone, designed to block the removal of protein phosphate groups by endogenous phosphatases, can cause unchecked and highly abnormal upward accumulation of abnormal levels of phosphoproteins, reaching a lethal level.

[15] = system: cultured cell line (A549); assay: as above; format: cell-based
Experimental: as §5, §6

[16] = Gastrinoma/liver tumor, Lysis Buffer = frozen immediately after lysis
[17] = Parathyroid tumor, Lysis Buffer = frozen immediately after lysis

## CO [20-50% methanol in water, methanol]
[1]
  level of mTOR (S2448) phosphorylation, fixed versus snap frozen: equivalence

## CCO [70% ethanol, ethanol]
[2]; [16]
  AKT Thr308 Normalized data: 0.00
[2]; Mesothelioma
  AKT Thr308 Normalized data: 15.15
[2]; [17]
  AKT Thr308 Normalized data: 18.57
[3]; [16]
  AKT ser473 Normalized data: 0.00
[3]; Mesothelioma
  AKT ser473 Normalized data: 10.94
[3]; [17]
  AKT ser473 Normalized data: 7.18
[4]; [16]
  CC3 Asp175 Normalized data: 5.09
[4]; Mesothelioma
  CC3 Asp175 Normalized data: 15.92
[4]; [17]
  CC3 Asp175 Normalized data: 19.16
[5]; [16]
  CREBser133 Normalized data: 103.07
[5]; Mesothelioma
  CREBser133 Normalized data: 53.05
[5]; [17]
  CREBser133 Normalized data: 67.91
[6]; [16]
  EGFR Y1148 Normalized data: 39.95
[6]; Mesothelioma
  EGFR Y1148 Normalized data: 30.71
[6]; [17]
  EGFR Y1148 Normalized data: 47.58
[7]; [16]
  ERK T202/Y204 Normalized data: 11.51
[7]; Mesothelioma
  ERK T202/Y204 Normalized data: 30.74
[7]; [17]
  ERK T202/Y204 Normalized data: 37.27
[8]; [16]
  GSK3ab ser21/9 Normalized data: 19.01
[8]; Mesothelioma
  GSK3ab ser21/9 Normalized data: 31.87
[8]; [17]
  GSK3ab ser21/9 Normalized data: 60.83
[9]; [16]
  IKappa-Ba ser32 Normalized data: 28.36
[9]; Mesothelioma
  IKappa-Ba ser32 Normalized data: 25.09
[9]; [17]
  IKappa-Ba ser32 Normalized data: 32.97
[10]; [16]
  IRS-1 ser612 Normalized data: 19.74
[10]; Mesothelioma
  IRS-1 ser612 Normalized data: 12.16
[10]; [17]
  IRS-1 ser612 Normalized data: 15.92
[11]; [16]
  p38 T180/182 Normalized data: 27.50
[11]; Mesothelioma
  p38 T180/182 Normalized data: 49.07
[11]; [17]
  p38 T180/182 Normalized data: 45.63
[12]
  preservation of phosphoproteins overall: significant, reproducible degradation of the phospho endpoints

## CO [Methanol]
[2]; [16]
  AKT Thr308 Normalized data: 43.73
[2]; Mesothelioma
  AKT Thr308 Normalized data: 32.75
[2]; [17]
  AKT Thr308 Normalized data: 28.31
[3]; [16]
  AKT ser473 Normalized data: 4.15
[3]; Mesothelioma
  AKT ser473 Normalized data: 11.14
[3]; [17]
  AKT ser473 Normalized data: 11.06
[4]; [16]
  CC3 Asp175 Normalized data: 37.64
[4]; Mesothelioma
  CC3 Asp175 Normalized data: 16.93
[4]; [17]
  CC3 Asp175 Normalized data: 14.80
[5]; [16]
  CREBser133 Normalized data: 131.23
[5]; Mesothelioma
  CREBser133 Normalized data: 114.37
[5]; [17]
  CREBser133 Normalized data: 65.44
[6]; [16]
  EGFR Y1148 Normalized data: 81.50
[6]; Mesothelioma
  EGFR Y1148 Normalized data: 63.00
[6]; [17]
  EGFR Y1148 Normalized data: 53.41
[7]; [16]
  ERK T202/Y204 Normalized data: 46.47
[7]; Mesothelioma
  ERK T202/Y204 Normalized data: 18.87
[7]; [17]
  ERK T202/Y204 Normalized data: 28.54
[8]; [16]
  GSK3ab ser21/9 Normalized data: 33.59
[8]; Mesothelioma
  GSK3ab ser21/9 Normalized data: 66.02
[8]; [17]
  GSK3ab ser21/9 Normalized data: 53.28
[9]; [16]
  IKappa-Ba ser32 Normalized data: 54.98
[9]; Mesothelioma
  IKappa-Ba ser32 Normalized data: 41.23
[9]; [17]
  IKappa-Ba ser32 Normalized data: 36.25
[10]; [16]
  IRS-1 ser612 Normalized data: 65.97
[10]; Mesothelioma
  IRS-1 ser612 Normalized data: 37.33
[10]; [17]
  IRS-1 ser612 Normalized data: 23.51
[11]; [16]
  p38 T180/182 Normalized data: 76.09
[11]; Mesothelioma
  p38 T180/182 Normalized data: 53.36
[11]; [17]
  p38 T180/182 Normalized data: 34.09

## CCO [ethanol:water, ethanol]
[13]
  phosphoprotein endpoints, room temperature shipping in fixative versus snap frozen: equivalence of the two methods

## CCO [ethanol]
[12]
  preservation of phosphoproteins overall: do not adequately preserve the phosphoproteins

## CO [methanol: water, methanol]
[13]; FIG. 6A
  RPA spot intensities, fixed versus frozen tissue: equivalent spot intensities
[13]
  phosphoprotein endpoints, room temperature shipping in fixative versus snap frozen: equivalence of the two methods

## pervanadate
[14]
  time for EGFR Y1173 phosphorylation to rise to a high level: less than 40 minutes
[15]; A549 cells, FIG. 10
  phosphorylation of phospho-endpoints over time: hyperphosphorylation over time; also recorded: large surge of phosphorylation
[15]; living cells exposed to phosphatase inhibitor, FIG. 10A
  fate of cells after phosphorylation surge: cell death
